pIC50: −log10 of the molar value.
What follows are compounds tested against PIK3CA (human) (UniProt P42336) (assay: Assessment of PIK3CA Kinase Activity).
Chain of PIK3CA (human) (P42336 whole entry, looked up): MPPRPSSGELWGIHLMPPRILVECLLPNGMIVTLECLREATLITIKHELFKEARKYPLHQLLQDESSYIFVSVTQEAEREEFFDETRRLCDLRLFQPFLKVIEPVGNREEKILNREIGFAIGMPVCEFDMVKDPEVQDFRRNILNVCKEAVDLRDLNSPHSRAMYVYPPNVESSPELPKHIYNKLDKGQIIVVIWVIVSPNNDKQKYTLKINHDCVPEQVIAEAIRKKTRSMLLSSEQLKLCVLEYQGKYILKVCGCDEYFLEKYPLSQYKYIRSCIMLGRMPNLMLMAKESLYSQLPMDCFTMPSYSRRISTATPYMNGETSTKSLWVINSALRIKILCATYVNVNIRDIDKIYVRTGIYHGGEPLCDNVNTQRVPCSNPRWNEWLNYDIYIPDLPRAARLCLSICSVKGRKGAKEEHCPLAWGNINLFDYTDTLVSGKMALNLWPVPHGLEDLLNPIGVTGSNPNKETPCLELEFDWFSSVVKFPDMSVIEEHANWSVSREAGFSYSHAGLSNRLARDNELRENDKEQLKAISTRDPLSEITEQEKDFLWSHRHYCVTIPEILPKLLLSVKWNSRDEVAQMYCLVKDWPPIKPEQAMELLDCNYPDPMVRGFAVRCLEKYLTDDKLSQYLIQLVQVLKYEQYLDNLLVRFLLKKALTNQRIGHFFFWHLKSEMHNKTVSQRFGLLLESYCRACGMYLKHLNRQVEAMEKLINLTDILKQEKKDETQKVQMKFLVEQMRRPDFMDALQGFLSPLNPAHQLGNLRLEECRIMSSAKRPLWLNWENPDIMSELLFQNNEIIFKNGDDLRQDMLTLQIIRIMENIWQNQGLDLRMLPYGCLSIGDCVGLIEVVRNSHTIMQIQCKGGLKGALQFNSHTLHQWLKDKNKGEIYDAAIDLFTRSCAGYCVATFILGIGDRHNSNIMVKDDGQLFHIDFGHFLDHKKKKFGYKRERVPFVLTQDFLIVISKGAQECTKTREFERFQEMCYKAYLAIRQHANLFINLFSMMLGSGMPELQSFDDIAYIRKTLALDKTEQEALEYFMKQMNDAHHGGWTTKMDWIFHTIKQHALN

pIC50, > 6.00:
CC[C@H](Oc1ccc2c(c1)OCCn1cc(-c3ncnn3C(C)C)nc1-2)C(N)=O, CC(C)n1ncnc1-c1cn2c(n1)-c1ccc(C3CCN(C(=O)C(C)(C)O)CC3)cc1OCC2, CC(C)n1ncnc1-c1cc2n(n1)-c1cc(C(=O)NCC(C)(C)O)ccc1OCC2, CC(C)n1ncnc1-c1cn2c(n1)-c1ccc(-c3cnn(CCO)c3)cc1OCC2, CC(C)n1ncnc1-c1cn2c(n1)-c1ccc(=O)[nH]c1OCC2, Cc1nc(-c2cn3c(n2)-c2cnc(NCC(N)=O)cc2OCC3)n(C(C)C)n1, Cc1nc(-c2cn3c(n2)-c2ccc(C4CCN(CC(=O)NC(C)C)CC4)cc2OCC3)n(C(C)C)n1, CC(C)n1ncnc1-c1cn2c(n1)-c1ccc(C3CCN(C(C)(C)C(N)=O)CC3)cc1OCC2, CC(C)n1nc(N)nc1-c1cn2c(n1)-c1cc(F)ccc1OCC2, CC(C)C(Oc1ccc2c(c1)OCCn1cc(-c3ncnn3C(C)C)nc1-2)C(N)=O (centres undefined), Cc1nc(-c2cn3c(n2)-c2cnc(NCC(=O)O)cc2OCC3)n(C(C)C)n1, CC(C)n1ncnc1-c1cn2c(n1)-c1ccc(-c3cn(CCO)cn3)cc1OCC2, CC(C)n1ncnc1-n1cc2c(n1)-c1ccc(-c3cnn(CCO)c3)cc1OCC2, Cn1ccnc1C(O)CNc1cc2c(cn1)-c1nc(-c3ncnn3-c3ccc(F)cc3F)cn1CCO2 (centres undefined), Cc1nc(-c2cn3c(n2)-c2ccc(-c4cn(CC(C)(C)O)cn4)cc2OCC3)n(C(C)C)n1, Cc1ccc2c(c1)-c1nc(-c3nc(C)nn3C(C)C)cn1CCO2, OCCN1CCN(Cc2ccc3c(c2)-n2nc(-c4ncnn4CC(F)(F)F)cc2CCO3)CC1, CC(C)n1ncnc1-c1cn2c(n1)-c1cnc(OCC(N)=O)cc1OCC2, Cc1nc(-c2cn3c(n2)-c2cc(C#N)ccc2OCC3)n(C(C)C)n1, CC(C)n1ncnc1-c1cn2c(n1)-c1ccc(C3CN(C(=O)C4(N)CC4)C3)cc1OCC2, CC(C)n1ncnc1-c1cn2c(n1)-c1ccc(CC(=O)O)cc1OCC2, CC(C)n1ncnc1-c1cn2c(n1)-c1ccc(C3=CCN(C)CC3C(N)=O)cc1OCC2 (centres undefined), COCCN1CCC(c2ccc3c(c2)OCCn2cc(-c4ncnn4C(C)C)nc2-3)CC1, CC(C)n1ncnc1-c1cn2c(n1)-c1ccc(C3=NC(C)(C)CO3)cc1OCC2, Cc1nc(-c2ccc3c(c2)OCCn2cc(-c4ncnn4C(C)C)nc2-3)cn1CCO, Cc1nc(-c2cn3c(n2)-c2cnc(N4C[C@@H](F)C[C@H]4C(N)=O)cc2OCC3)n(C(C)C)n1, Clc1ccccc1-n1ncnc1-c1cn2c(n1)-c1cc(-c3cncnc3)ccc1OCC2, CS(=O)(=O)c1ccccc1CNc1cc2c(cn1)-c1nc(-c3ncnn3-c3ccc(F)cc3F)cn1CCO2, Cc1nc(-c2cn3c(n2)-c2ccc(C4CCN(CC(N)=O)CC4)cc2OCC3)n(C(C)C)n1, CC(C)n1ncnc1-c1cc2n(n1)-c1cc(CN3CCN(C(=O)CO)CC3)ccc1OCC2, CC(C)(CO)NC(=O)c1ccc2c(c1)-c1nc(-c3nccn3-c3ccccc3Cl)cn1CCO2, CC(C)n1ncnc1-c1cn2c(n1)-c1ccc(C(=O)NCCS(C)(=O)=O)cc1OCC2, CC(C)n1ncnc1-c1cn2c(n1)-c1cc(N3CCN(C)CC3)ncc1OCC2, COCc1nc(-c2cn3c(n2)-c2ccc(C)cc2OCC3)n(C(C)C)n1
